In the NIST ThermoML archive (doi:10.1021/je800481n):
Numbers after ± are expanded uncertainties.

What was measured:
[1] = Boiling temperature at pressure P; conditions: 101.3 kPa; Liquid; Ebulliometric method (Recirculating still)
[2] = refractive index (Na D-line) (dimensionless); conditions: 101.3 kPa, Liquid, Standard Abbe refractometry

Boiling temperature at pressure P [1]	refractive index ([2]; 298.15 K)	refractive index ([2]; 301.15 K)	Structure (SMILES)
165.62 ± 0.12 °C	1.43507 ± 0.00051		CC(=O)N(C)C [N,N-dimethylethanamide]
152.29 ± 0.12 °C	1.48829 ± 0.00037		CC(C)c1ccccc1 [isopropylbenzene]
206.00 ± 0.12 °C		1.42854 ± 0.00037	CNC(C)=O [N-methylacetamide]
